Measured values published in patent US8222254B2, “1, 2, 4-triazole derivatives as serotonergic modulators” (Prosarix Limited, priority 2007, dated 2012).

Experiments:
[1] = molecular target: T1, 5HT1A (Homo sapiens, UniProt P08908); test: GTPγS assay for 5HT1A agonist activity; format: biochemical; details: bound [35S]GTPγS relative to serotonin response
T1 construct: expressed in transfected cells; host or cells: CHO cells (Chinese hamster)
T1 sequence (P08908 1-422): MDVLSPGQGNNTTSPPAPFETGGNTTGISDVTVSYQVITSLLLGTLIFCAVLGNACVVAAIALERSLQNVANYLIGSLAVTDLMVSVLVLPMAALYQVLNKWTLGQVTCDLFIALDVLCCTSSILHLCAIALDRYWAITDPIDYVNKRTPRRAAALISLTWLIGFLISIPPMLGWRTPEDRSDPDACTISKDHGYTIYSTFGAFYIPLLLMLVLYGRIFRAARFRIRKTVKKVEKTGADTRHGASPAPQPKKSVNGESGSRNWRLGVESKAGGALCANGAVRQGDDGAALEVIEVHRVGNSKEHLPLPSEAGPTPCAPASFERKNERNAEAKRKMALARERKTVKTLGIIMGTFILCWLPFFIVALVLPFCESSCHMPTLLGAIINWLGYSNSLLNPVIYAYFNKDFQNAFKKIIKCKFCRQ
Method: Selected compounds were tested for 5HT1A agonist activity using a GTPγS assay. GTPγS binding for 5HT1A was determined according to the procedures of Adlersberg et al. J Neurosci. Res. 2000, 61(6): 674-685. Compounds were incubated for 30 minutes at 30° C. in 20 mM HEPES, pH7.4, 100 mM NaCl, 10 mM MgCl2, 1 mM DTT, 1 mM EDTA with human CHO cells Chinese hamster. Quantitation of bound [^35S] GTPγS was determined with agonist significance criteria of >50% increase in bound [^35S] GTPγS relative to serotonin response.

[2] = Metabolic stability in rat liver microsomes; format: in vitro ADME; details: pH 7.4
[3] = Metabolic stability in human liver microsomes; format: in vitro ADME; details: pH 7.4, 1 μM compound, 0.3 mg/mL microsomes, pH7.4, 37° C.
Method: Metabolic stability of selected compounds in human liver microsomes was assessed using the procedure described by Kuhnz and Gieschen, Drug Metab. Dispos. 1998, 26: 1120-1127. Compounds (1 μM) were measured by LC/MS following 0 and 60 minute incubations with human liver microsomes (0.3 mg/mL) at pH7.4 and 37° C.

[4] = molecular target: T2, dopamine D2L receptor (Homo sapiens, UniProt P14416); test: Dopamine D2 Receptor Assay, [3H]Spiperone competition binding; details: selectivity 5HT1A over dopamine D2
T2 construct: expressed in transfected cells; host or cells: CHO cells
T2 sequence (P14416 whole entry): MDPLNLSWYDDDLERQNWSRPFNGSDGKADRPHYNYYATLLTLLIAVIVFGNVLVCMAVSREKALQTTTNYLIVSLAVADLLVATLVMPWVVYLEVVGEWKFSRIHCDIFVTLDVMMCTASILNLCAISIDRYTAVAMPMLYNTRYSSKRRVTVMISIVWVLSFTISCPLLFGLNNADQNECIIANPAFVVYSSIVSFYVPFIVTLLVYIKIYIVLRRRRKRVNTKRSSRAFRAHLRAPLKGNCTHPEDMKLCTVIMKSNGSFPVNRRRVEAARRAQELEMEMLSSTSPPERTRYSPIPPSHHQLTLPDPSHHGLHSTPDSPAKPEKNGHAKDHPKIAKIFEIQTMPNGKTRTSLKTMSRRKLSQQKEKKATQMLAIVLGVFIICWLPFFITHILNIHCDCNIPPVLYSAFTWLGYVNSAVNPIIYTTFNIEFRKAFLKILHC
Method: The determination of binding of the ligand with dopamine D2L receptor was carried out according to the procedures described in Grandy et al. Proc. Natl. Acad. Sci. 1989, 86: 9762-9766.
For competition binding, radiolabelled 0.16 nM [3H]Spiperone was incubated for 120 minutes at 25° C. with D2L transfected human recombinant CHO cells in 50 mM Tris-HCl, pH7.4, 150 mM NaCl, 1.4 mM Ascorbic acid, 0.001% BSA and increasing concentrations of test compound. The non-specific ligand used was […] haloperidol. Significance criteria was 50% of max stimulation or inhibition.

[5] = test system: α1-adrenergic receptor; test: α1-Adrenergic Receptor Assay, [3H]Prazosin competition binding; set-up: species or system rat; details: selectivity 5HT1A over α1-adrenergic
Method: The determination of binding of the ligand with α1-adrenergic receptor was carried out according to the procedures described in Greengrass P and Bremner R. Eur. J. Pharmacol. 1979, 55: 323-326.
For competition binding, radiolabelled 0.25 nM [3H]Prazosin was incubated for 30 minutes at 25° C. with al transfected wisatar rat cerebral cortex cell membranes in 50 mM Tris-HCl, pH7.4, 0.1% Ascorbic acid, 10 mM Pargyline and increasing concentrations of test compound. The non specific ligand used was 0.1 uM Prazosin. Significance criteria was 50% of max stimulation or inhibition.

In the case of `COc1ccccc1N1CCN(CCc2n[nH]c(=O)n2-c2ccc(Cl)c(Cl)c2)CC1` [Example 33, 4-(3,4-Dichloro-phenyl)-5-{2-[4-(2-methoxy-phenyl)-piperazin-1-yl]-ethyl}-2,4-dihydro-[1,2,4]triazol-3-one], the EC50 [1] is reported as under 200 nM.

Work on `COc1ccccc1N1CCN(CCc2n[nH]c(=O)n2C(c2ccccc2)c2ccccc2)CC1` [Example 28, 4-Benzhydryl-5-{2-[4-(2-methoxy-phenyl)-piperazin-1-yl]-ethyl}-2,4-dihydro-[1,2,4]triazol-3-one] yielded an EC50 [1] of under 200 nM.

For `COc1ccccc1N1CCN(CCc2n[nH]c(=O)n2Cc2ccccc2)CC1` [Example 13, 4-Benzyl-5-{2-[4-(2-methoxy-phenyl)-piperazin-1-yl]-ethyl}-2,4-dihydro-[1,2,4]triazol-3-one], the half-life at 1 μM [2] was at least 1 h and the half-life at 1 μM [3] was at least 1 h.

In the case of `CC(=O)Nc1cccc(N2CCN(CCc3n[nH]c(=O)n3CC3CCCCC3)CC2)c1` [Example 38, N-[3-(4-{2-[4-(Cyclohexylmethyl)-5-oxo-4,5-dihydro-1H-1,2,4-triazol-3-yl]ethyl}piperazin-1-yl)phenyl]acetamide], the “affinity for 5HT1A relative to affinity for dopamine D2 receptors” value [4] is reported as “more than fifty times greater” and the “affinity for 5HT1A relative to affinity for α1-adrenergic receptors” value [5] is reported as “more than fifty times greater”.

Compound `COc1ccccc1N1CCN(CCc2n[nH]c(=O)n2Cc2ccc(Cl)c(Cl)c2)CC1` [Example 21, 4-(3,4-Dichloro-benzyl)-5-{2-[4-(2-methoxy-phenyl)-piperazin-1-yl]-ethyl}-2,4-dihydro-[1,2,4]triazol-3-one] has an EC50 [1] of under 200 nM.

For `COc1ccccc1N1CCN(CCc2n[nH]c(=O)n2CC2CCCCC2)CC1` [Example 17, 4-(Cyclohexylmethyl)-5-{2-[4-(2-methoxyphenyl)piperazino]ethyl}-2,4-dihydro-3H-1,2,4-triazol-3-one], the half-life at 1 μM [2] was at least 1 h and the half-life at 1 μM [3] was at least 1 h.

Compound `COc1ccccc1N1CCN(CCc2nn(C)c(=O)n2CC2CCCCC2)CC1` [Example 42, 4-(Cyclohexylmethyl)-5-{2-[4-(2-methoxyphenyl)piperazino]ethyl}-2-methyl-2,4-dihydro-3H-1,2,4-triazol-3-one] has an EC50 [1] of under 200 nM.

For `COc1ccccc1N1CCN(C(C)Cc2nn(C)c(=O)n2CC2CCCCC2)CC1` (stereo not drawn) [Example 37, 4-(Cyclohexylmethyl)-5-{2-[4-(2-methoxyphenyl)piperazin-1-yl]propyl}-2-methyl-2,4-dihydro-3H-1,2,4-triazol-3-one], the “affinity for 5HT1A relative to affinity for dopamine D2 receptors” value [4] was “more than fifty times greater” and the “affinity for 5HT1A relative to affinity for α1-adrenergic receptors” value [5] was “more than fifty times greater”.

`COc1ccccc1N1CCN(CCc2n[nH]c(=O)n2Cc2cccc(F)c2)CC1` [Example 26, 4-(3-Fluoro-benzyl)-5-{2-[4-(2-methoxy-phenyl)-piperazin-1-yl]-ethyl}-2,4-dihydro-[1,2,4]triazol-3-one] gave a half-life at 1 μM [2] of at least 1 h and a half-life at 1 μM [3] of at least 1 h.

`COc1ccccc1N1CCN(CCc2n[nH]c(=O)n2C2CCCCCCC2)CC1` [Example 10, 4-Cyclooctyl-5-{2-[4-(2-methoxyphenyl)piperazino]ethyl}-2,4-dihydro-3H-1,2,4-triazol-3-one] showed an EC50 [1] of under 200 nM.

With `CC(=O)Nc1cccc(N2CCN(CCc3nn(C)c(=O)n3CC3CCCCC3)CC2)c1` [Example 41, N-[3-(4-{2-[4-(Cyclohexylmethyl)-1-methyl-5-oxo-4,5-dihydro-1H-1,2,4-triazol-3-yl]ethyl}piperazino)phenyl]acetamide] the EC50 [1] was under 200 nM and the “affinity for 5HT1A relative to affinity for dopamine D2 receptors” value [4] was “more than a thousand times greater”.

In the case of `CC(=O)Nc1cccc(N2CCN(CCCc3n[nH]c(=O)n3CC3CCCCC3)CC2)c1` [Example 39, N-(3-{4-[3-(4-Cyclohexylmethyl-5-oxo-4,5-dihydro-1H-[1,2,4]triazol-3-yl)-propyl]-piperazin-1-yl}-phenyl)-acetamide], the “affinity for 5HT1A relative to affinity for α1-adrenergic receptors” value [5] is reported as “more than fifty times greater”.
